Assay results: patent US20080171660A1, “Method of Controlling Weeds” (priority 2005, published 2008)

Experiments:
Curly dock (RUMCR) = experiment: Field test, weed control, post-emergence, 15 DAT (Example 1); type: in vivo; conditions: use rate I.7 12.5 g/ha, tribenuron-methyl 10 g/ha
Excerpt: (§1) The phenyluracils I and/or the other active ingredients according to the present invention were formulated in a suitable way, either separately or in mixture, e.g. as emulsifiable concentrates (EC), soluble concentrates (SL), suspo-emulsions (SE), suspension concentrates (SC) or water-dispersible granules (WG). The formulation(s) were suspended or emulsified in water as a distribution medium immediately prior to spraying. Afterwards, the aqueous mixture was evenly sprayed on the test plots by means of finely distributing nozzles.
(§2) The test plots were of uniform size (typically between 14 and 37 square meters, each) and the distribution of treated and untreated plots was organized according to a randomised bloc design. Crops were sown in rows at a season which was typical for the region and the crop according to usual farm practice. Weeds were not sown but germinated according to the natural infestation.
(§3) For pre-plant and pre-plant burn-down treatments, the plots were treated before the crop was planted, typically 7 to 28 days prior to planting. For pre-emergence treatments, the plots were treated at planting (plus or minus two days) but before emergence. For post-emergence or in-crop treatments, the plots were treated after the emergence of the weed or crop, typically 20 to 50 days after planting. […]

Wild mustard (SINAR) = experiment: as above; type: in vivo; conditions: use rate I.7 12.5 g/ha, tribenuron-methyl 10 g/ha
Excerpt: as §1, §2, §3

COC(=O)c1ccccc1S(=O)(=O)NC(=O)N(C)c1nc(C)nc(OC)n1 [tribenuron-methyl]
Weed control (% control) Curly dock (RUMCR) Found (Curly dock (RUMCR)): 40 % control | Weed control (% control) Wild mustard (SINAR) Found (Wild mustard (SINAR)): 100 % control
